# Source: US20260249027A1, “METERED DOSE INHALERS AND HIGH-DOSE SUSPENSIONS” (Kindeva Drug Delivery L.P., priority 2023, published 2026)
# Key:
# Assay type in all cases: physicochemical
# [1] = Through life dose consistency of sodium cromoglycate pMDI suspensions (USP <601>, apparatus A)
# Method: (§1) In the following examples, dose consistency was determined by in vitro measurement of single actuation dose content at start, middle and end of pMDI unit life in line with U.S. Pharmacopeia (USP)<601>, using a flow rate of 28.3 L/min and apparatus A. Aerodynamic particle size distribution of the pMDI suspension aerosols was measured at start of unit life in line with U.S. Pharmacopeia (USP)<601> using a Next Generation impactor without pre-separator (apparatus 6) and a flow rate of 30 L/min.
# (§2) A first set of suspensions included no ethanol. A second set of suspensions included 2% ethanol by weight.
# (§3) In total, ten suspension pMDI formulations were prepared in triplicate with sufficient fill weight to provide 60 actuations. Each suspension was filled into Kindeva FEP coated canisters, crimped with a Kindeva 50-μL valve. Each pMDI unit was sonicated for at least 10 minutes to disperse the suspended drug and tested with a Kindeva actuator having an exit orifice diameter (EOD) of 0.4 mm.
# [2] = Aerodynamic particle size measurement of sodium cromoglycate pMDI suspensions (Next Generation impactor)
# Text: (§4) In general, aerosols with mass median aerodynamic diameters (MMAD) of at least 1 μm but less than 5 μm in size are suitable for effective deep lung deposition for therapeutic effect. Herein, fine particle fraction (FPF) is defined as the percentage of the ex-actuator delivered API having a MMAD of less than 5 μm when tested in vitro. Herein, “ex-actuator” delivered dose is used to describe the amount of API delivered past the actuator of a pMDI. Therefore, an aerosol with a high FPF is typically suitable for deep lung deposition.
# as §1, §2
# as §3, with “mm” for “mm.”
# (§5) The mass median aerodynamic diameter (MMAD) and fine particle fraction (FPF) of each pMDI unit were measured by Next Generation cascade impaction (N=3) for each pMDI suspension.
# [3] = Aerodynamic particle size measurement of salbutamol sulfate pMDI suspensions (Next Generation impactor)
# Text: as §4, §1
# as §3, with “six” for “ten”
# as §5
# [4] = nominal ex-valve 0.5 mg/act, HFA-152a
# [5] = nominal ex-valve 0.5 mg/act, HFA-152a/2% EtOH (w/w)
# [6] = nominal ex-valve 0.5 mg/act, HFO-1234ze(E)
# [7] = nominal ex-valve 0.5 mg/act, HFO-1234ze(E)/2% EtOH (w/w)
# [8] = nominal ex-valve 1.0 mg/act, HFA-152a
# [9] = nominal ex-valve 1.0 mg/act, HFA-152a/2% EtOH (w/w)
# [10] = nominal ex-valve 1.0 mg/act, HFO-1234ze(E)
# [11] = nominal ex-valve 1.0 mg/act, HFO-1234ze(E)/2% EtOH (w/w)
# [12] = nominal ex-valve 2.0 mg/act, HFA-152a
# [13] = nominal ex-valve 2.0 mg/act, HFO-1234ze(E)
compound,measurement,setting,value
O=C(O)c1cc(=O)c2c(OCC(O)COc3cccc4oc(C(=O)O)cc(=O)c34)cccc2o1 [sodium cromoglycate],effect of addition of ethanol on through unit life ex-actuator delivered dose consistency,"[1]; 2% ethanol by weight, HFA-152a or HFO-1234ze(E)",did not always substantially improve
same,through unit life ex-actuator delivered dose consistency,[1]; HFA-152a or HFO-1234ze(E) with and without 2% ethanol by weight,relatively consistent
same,MoL mean delivered dose,[1]; [4],363.8 μg/act
same,SoL mean delivered dose,[1]; [4],611.8 μg/act
same,TL mean delivered dose,[1]; [4],427.8 μg/act
same,EoL mean delivered dose,[1]; [5],313.6 μg/act
same,MoL mean delivered dose,[1]; [5],331.6 μg/act
same,SoL mean delivered dose,[1]; [5],675.8 μg/act
same,TL mean delivered dose,[1]; [5],440.3 μg/act
same,EoL mean delivered dose,[1]; [6],158.7 μg/act
same,MoL mean delivered dose,[1]; [6],354.1 μg/act
same,SoL mean delivered dose,[1]; [6],419.4 μg/act
same,TL mean delivered dose,[1]; [6],310.7 μg/act
same,EoL mean delivered dose,[1]; [7],315.4 μg/act
same,MoL mean delivered dose,[1]; [7],332.8 μg/act
same,SoL mean delivered dose,[1]; [7],940.2 μg/act
same,TL mean delivered dose,[1]; [7],529.5 μg/act
same,EoL mean delivered dose,[1]; [8],618.4 μg/act
same,MoL mean delivered dose,[1]; [8],931.3 μg/act
same,SoL mean delivered dose,[1]; [8],950.3 μg/act
same,TL mean delivered dose,[1]; [8],833.3 μg/act
same,EoL mean delivered dose,[1]; [9],847.0 μg/act
same,MoL mean delivered dose,[1]; [9],906.3 μg/act
same,SoL mean delivered dose,[1]; [9],1027.9 μg/act
same,TL mean delivered dose,[1]; [9],927.0 μg/act
same,EoL mean delivered dose,[1]; [10],695.5 μg/act
same,MoL mean delivered dose,[1]; [10],784.8 μg/act
same,SoL mean delivered dose,[1]; [10],967.3 μg/act
same,TL mean delivered dose,[1]; [10],815.9 μg/act
same,EoL mean delivered dose,[1]; [11],735.1 μg/act
same,MoL mean delivered dose,[1]; [11],917.0 μg/act
same,SoL mean delivered dose,[1]; [11],876.4 μg/act
same,TL mean delivered dose,[1]; [11],842.9 μg/act
same,EoL mean delivered dose,[1]; [12],1694.4 μg/act
same,MoL mean delivered dose,[1]; [12],1590.1 μg/act
same,SoL mean delivered dose,[1]; [12],1782.4 μg/act
same,TL mean delivered dose,[1]; [12],1689.0 μg/act
same,EoL mean delivered dose,[1]; [13],119.8 μg/act
same,MoL mean delivered dose,[1]; [13],879.1 μg/act
same,SoL mean delivered dose,[1]; [13],2009.3 μg/act
same,TL mean delivered dose,[1]; [13],1255.0 μg/act
same,"MMAD values of aerosols, suitability","[2]; HFA-152a or HFO-1234ze(E), with and without ethanol, in-vitro",in an appropriate respirable range
same,FPF and MMAD without ethanol compared with corresponding suspensions with 2% ethanol by weight,"[2]; HFA-152a or HFO-1234ze(E), all nominal doses",consistently produced greater FPFs and smaller MMADs
same,Mean FPF,[2]; [4],33.0%
same,Mean MMAD,[2]; [4],3.59 μm
same,Mean FPF,[2]; [5],29.5%
same,Mean MMAD,[2]; [5],3.92 μm
same,Mean FPF,[2]; [6],41.3%
same,Mean MMAD,[2]; [6],3.41 μm
same,Mean FPF,[2]; [7],34.1%
same,Mean MMAD,[2]; [7],3.77 μm
same,Mean FPF,[2]; [8],28.2%
same,Mean MMAD,[2]; [8],3.85 μm
same,Mean FPF,[2]; [9],25.2%
same,Mean MMAD,[2]; [9],4.38 μm
same,Mean FPF,[2]; [10],34.7%
same,Mean MMAD,[2]; [10],3.72 μm
same,Mean FPF,[2]; [11],30.9%
same,Mean MMAD,[2]; [11],4.13 μm
same,Mean FPF,[2]; [12],24.7%
same,Mean MMAD,[2]; [12],4.39 μm
same,Mean FPF,[2]; [13],30.7%
same,Mean MMAD,[2]; [13],4.23 μm
same,FPF and MMAD in HFO-1234ze(E) compared with corresponding suspensions in HFA-152a,[2]; with or without ethanol,consistently produced greater FPFs and generally smaller MMADs
salbutamol sulfate,"MMAD values of aerosols, suitability","[3]; HFA-152a or HFO-1234ze(E), in-vitro",in an appropriate respirable range
same,FPF and MMAD in HFO-1234ze(E) compared with corresponding suspensions in HFA-152a,[3]; no ethanol,consistently produced greater FPFs and smaller MMADs
same,Mean FPF,[3]; [4],45.6%
same,Mean MMAD,[3]; [4],2.98 μm
same,Mean FPF,[3]; [6],57.0%
same,Mean MMAD,[3]; [6],2.98 μm
same,Mean FPF,[3]; [8],40.8%
same,Mean MMAD,[3]; [8],3.30 μm
same,Mean FPF,[3]; [10],52.4%
same,Mean MMAD,[3]; [10],3.12 μm
same,Mean FPF,[3]; [12],30.3%
same,Mean MMAD,[3]; [12],3.92 μm
same,Mean FPF,[3]; [13],36.4%
same,Mean MMAD,[3]; [13],3.67 μm
